# In patent publication US12599136B2, “Substituted isophthalic acid diamides and their use as herbicides” (Bayer Aktiengesellschaft, priority 2020, dated 2026):
# How the values were obtained:
# Format in all cases: in vivo
# Hordeum murinum [1] = test: Pre-emergence herbicidal action against HORMU; details: 320 g/ha; visual score after 3 weeks vs untreated controls
# Excerpt: (§1) Seeds of monocotyledonous and dicotyledonous weed plants and crop plants are laid out in sandy loam soil in wood-fiber pots and covered with soil. The compounds of the invention, formulated in the form of wettable powders (WP) or as emulsion concentrates (EC), are then applied to the surface of the covering soil in the form of an aqueous suspension or emulsion at a water application rate equivalent to 600 to 800 l/ha, with addition of 0.2% wetting agent. After the treatment, the pots are placed in a greenhouse and kept under good growth conditions for the trial plants. The damage to the test plants is scored visually after a test period of 3 weeks by comparison with untreated controls (herbicidal activity in percent (%): 100% activity=the plants have died, 0% activity=like control plants). […] The tables below illustrate, in an illustrative manner, the post-emergence herbicidal action of the compounds of the invention, the herbicidal activity being stated in percent.
# Matricaria inodora [2] = test: Pre-emergence herbicidal action against MATIN; details: visual score after 3 weeks vs untreated controls
# Procedure, shortened: (§2)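 Seeds sown in sandy loam, soil-covered; compound sprayed on soil surface pre-emergence. Application: WP/EC, 600–800 l/ha, 0.2% wetting agent. Readout: visual % damage at 3 weeks.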
# Stellaria media [3] = test: Post-emergence herbicidal action against STEME; details: visual assessment about 3 weeks after treatment
# Method: (§3) Seeds of monocotyledonous and dicotyledonous weed and crop plants are laid out in sandy loam soil in wood-fiber pots, covered with soil and cultivated in a greenhouse under good growth conditions. 2 to 3 weeks after sowing, the test plants are treated at the one-leaf stage. The compounds of the invention, formulated in the form of wettable powders (WP) or as emulsion concentrates (EC), are then sprayed onto the green parts of the plants in the form of an aqueous suspension or emulsion at a water application rate equivalent to 600 to 800 l/ha, with addition of 0.2% wetting agent. After the test plants have been left to stand in the greenhouse under optimal growth conditions for about 3 weeks, the action of the preparations is assessed visually in comparison to untreated controls (herbicidal action in percent (%): 100% activity=the plants have died, 0% activity=like control plants). […] The tables below illustrate, in an illustrative manner, the post-emergence herbicidal action of the compounds of the invention, the herbicidal activity being stated in percent.
# Pharbitis purpurea [4] = test: Post-emergence herbicidal action against PHBPU; details: visual assessment about 3 weeks after treatment
# Procedure, shortened: (§4)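 Sandy loam, greenhouse; treatment 2–3 weeks after sowing, one-leaf stage. Aqueous suspension or emulsion from WP/EC sprayed on foliage (600–800 l/ha, 0.2% wetting agent). Readout: visual % action, ~3 weeks.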
# Amaranthus retroflexus [5] = test: Post-emergence herbicidal action against AMARE; details: visual assessment about 3 weeks after treatment
# Procedure, shortened: as §4
# Hordeum murinum [6] = test: Post-emergence herbicidal action against HORMU; details: 80 g/ha
# Method: as §3
# Setaria viridis [7] = test: Pre-emergence herbicidal action against SETVI
# Procedure, shortened: as §2
# Avena fatua [8] = test: Post-emergence herbicidal action against AVEFA; details: visual assessment about 3 weeks after treatment
# Procedure, shortened: as §4
# Viola tricolor [9] = test: Pre-emergence herbicidal action against VIOTR
# Procedure, shortened: as §2
# Abutilon theophrasti [10] = test: Pre-emergence herbicidal action against ABUTH; details: visual score after 3 weeks vs untreated controls
# Procedure, shortened: as §2
# Echinochloa crus-galli [11] = test: Pre-emergence herbicidal action against ECHCG; details: visual score after 3 weeks vs untreated controls
# Procedure, shortened: as §2
# Veronica persica [12] = test: Pre-emergence herbicidal action against VERPE; details: 320 g/ha
# Procedure, shortened: as §2
# Abutilon theophrasti [13] = test: Post-emergence herbicidal action against ABUTH
# Procedure, shortened: as §4
# Avena fatua [14] = test: Pre-emergence herbicidal action against AVEFA; details: visual score after 3 weeks vs untreated controls
# Procedure, shortened: as §2
# Cyperus esculentus = test: Pre-emergence herbicidal action against CYPES; details: visual score after 3 weeks vs untreated controls
# Excerpt: as §1
# Setaria viridis [15] = test: Post-emergence herbicidal action against SETVI; details: visual assessment about 3 weeks after treatment
# Procedure, shortened: as §4
# Amaranthus retroflexus [16] = test: Pre-emergence herbicidal action against AMARE; details: visual score after 3 weeks vs untreated controls
# Procedure, shortened: as §2
# Echinochloa crus-galli [17] = test: Post-emergence herbicidal action against ECHCG; details: visual assessment about 3 weeks after treatment
# Procedure, shortened: as §4
# Veronica persica [18] = test: Post-emergence herbicidal action against VERPE; details: visual assessment about 3 weeks after treatment
# Procedure, shortened: as §4
# Alopecurus myosuroides [19] = test: Post-emergence herbicidal action against ALOMY; details: 80 g/ha
# Procedure, shortened: as §4
# Matricaria inodora [20] = test: Post-emergence herbicidal action against MATIN; details: visual assessment about 3 weeks after treatment
# Procedure, shortened: as §4
# Polygonum convolvulus = test: Pre-emergence herbicidal action against POLCO; details: 320 g/ha
# Procedure, shortened: as §2
# Stellaria media [21] = test: Pre-emergence herbicidal action against STEME
# Excerpt: as §1
# Alopecurus myosuroides [22] = test: Pre-emergence herbicidal action against ALOMY; details: visual score after 3 weeks vs untreated controls
# Procedure, shortened: as §2
# Lolium rigidum = test: Pre-emergence herbicidal action against LOLRI; details: 320 g/ha
# Procedure, shortened: as §2
# Viola tricolor [23] = test: Post-emergence herbicidal action against VIOTR
# Procedure, shortened: as §4
# Pharbitis purpurea [24] = test: Pre-emergence herbicidal action against PHBPU; details: 320 g/ha; visual score after 3 weeks vs untreated controls
# Excerpt: as §1
# [25] = Dosage column 320 g/ha (heading prints 3200 g/ha)
smiles,measurement,setting,value
CN(C(=O)c1c(Cl)ccc(C(=O)Nc2nnnn2C)c1Cl)c1ccccc1 [Example 1-398],Pre-emergence action against HORMU,Hordeum murinum [1],100%
same,Pre-emergence action against MATIN,Matricaria inodora [2]; 20 g/ha,90%
same,Pre-emergence action against MATIN,Matricaria inodora [2]; 80 g/ha,100%
same,Pre-emergence action against MATIN,Matricaria inodora [2]; 320 g/ha,100%
same,Post-emergence action against STEME in %,Stellaria media [3]; 5 g/ha,80%
same,Post-emergence action against STEME in %,Stellaria media [3]; 20 g/ha,90%
same,Post-emergence action against STEME in %,Stellaria media [3]; 80 g/ha,100%
same,Post-emergence action against PHBPU in %,Pharbitis purpurea [4]; 20 g/ha,80%
same,Post-emergence action against PHBPU in %,Pharbitis purpurea [4]; 80 g/ha,80%
same,Post-emergence action against AMARE in %,Amaranthus retroflexus [5]; 5 g/ha,80%
same,Post-emergence action against AMARE in %,Amaranthus retroflexus [5]; 20 g/ha,100%
same,Post-emergence action against AMARE in %,Amaranthus retroflexus [5]; 80 g/ha,100%
same,Post-emergence action against HORMU in %,Hordeum murinum [6],80%
same,Pre-emergence action against SETVI,Setaria viridis [7]; 80 g/ha,100%
same,Pre-emergence action against SETVI,Setaria viridis [7]; 320 g/ha,100%
same,Post-emergence action against AVEFA in %,Avena fatua [8]; 80 g/ha,80%
same,Pre-emergence action against VIOTR,Viola tricolor [9]; 80 g/ha,80%
same,Pre-emergence action against VIOTR,Viola tricolor [9]; 320 g/ha,100%
same,Pre-emergence action against ABUTH,Abutilon theophrasti [10]; 20 g/ha,100%
same,Pre-emergence action against ABUTH,Abutilon theophrasti [10]; 80 g/ha,100%
same,Pre-emergence action against ABUTH,Abutilon theophrasti [10]; [25],100%
same,Pre-emergence action against ECHCG,Echinochloa crus-galli [11]; 80 g/ha,80%
same,Pre-emergence action against ECHCG,Echinochloa crus-galli [11]; 320 g/ha,100%
same,Pre-emergence action against VERPE,Veronica persica [12],100%
same,Post-emergence action against ABUTH,Abutilon theophrasti [13]; 20 g/ha,100%
same,Post-emergence action against ABUTH,Abutilon theophrasti [13]; 80 g/ha,100%
same,Pre-emergence action against AVEFA,Avena fatua [14]; 80 g/ha,80%
same,Pre-emergence action against AVEFA,Avena fatua [14]; 320 g/ha,90%
same,Pre-emergence action against CYPES,Cyperus esculentus; 80 g/ha,80%
same,Pre-emergence action against CYPES,Cyperus esculentus; 320 g/ha,90%
same,Post-emergence action against SETVI in %,Setaria viridis [15]; 80 g/ha,100%
same,Pre-emergence action against AMARE,Amaranthus retroflexus [16]; 20 g/ha,90%
same,Pre-emergence action against AMARE,Amaranthus retroflexus [16]; 80 g/ha,100%
same,Pre-emergence action against AMARE,Amaranthus retroflexus [16]; 320 g/ha,100%
same,Post-emergence action against ECHCG in %,Echinochloa crus-galli [17]; 20 g/ha,100%
same,Post-emergence action against ECHCG in %,Echinochloa crus-galli [17]; 80 g/ha,100%
same,Post-emergence action against VERPE in %,Veronica persica [18]; 20 g/ha,80%
same,Post-emergence action against VERPE in %,Veronica persica [18]; 80 g/ha,90%
same,Post-emergence action against ALOMY,Alopecurus myosuroides [19],100%
same,Post-emergence action against MATIN in %,Matricaria inodora [20]; 80 g/ha,90%
same,Pre-emergence action against POLCO,Polygonum convolvulus,100%
same,Pre-emergence action against STEME,Stellaria media [21]; 20 g/ha,90%
same,Pre-emergence action against STEME,Stellaria media [21]; 80 g/ha,100%
same,Pre-emergence action against STEME,Stellaria media [21]; 320 g/ha,100%
same,Pre-emergence action against ALOMY,Alopecurus myosuroides [22]; 20 g/ha,80%
same,Pre-emergence action against ALOMY,Alopecurus myosuroides [22]; 80 g/ha,100%
same,Pre-emergence action against ALOMY,Alopecurus myosuroides [22]; 320 g/ha,100%
same,Pre-emergence action against LOLRI,Lolium rigidum,90%
same,Post-emergence action against VIOTR in %,Viola tricolor [23]; 80 g/ha,90%
CCCn1nnnc1NC(=O)c1ccc(C(F)(F)F)c(C(=O)N(C)CC2CC2)c1Cl [Example 3-126],Pre-emergence action against MATIN,Matricaria inodora [2]; 80 g/ha,90%
same,Pre-emergence action against MATIN,Matricaria inodora [2]; 320 g/ha,100%
same,Pre-emergence action against PHBPU,Pharbitis purpurea [24],80%
same,Post-emergence action against STEME in %,Stellaria media [3]; 5 g/ha,100%
same,Post-emergence action against STEME in %,Stellaria media [3]; 20 g/ha,100%
same,Post-emergence action against STEME in %,Stellaria media [3]; 80 g/ha,100%
same,Post-emergence action against PHBPU in %,Pharbitis purpurea [4]; 20 g/ha,90%
same,Post-emergence action against PHBPU in %,Pharbitis purpurea [4]; 80 g/ha,100%
same,Post-emergence action against AMARE in %,Amaranthus retroflexus [5]; 5 g/ha,100%
same,Post-emergence action against AMARE in %,Amaranthus retroflexus [5]; 20 g/ha,100%
same,Post-emergence action against AMARE in %,Amaranthus retroflexus [5]; 80 g/ha,100%
same,Pre-emergence action against SETVI,Setaria viridis [7]; 80 g/ha,80%
same,Pre-emergence action against SETVI,Setaria viridis [7]; 320 g/ha,100%
same,Post-emergence action against AVEFA in %,Avena fatua [8]; 20 g/ha,90%
same,Post-emergence action against AVEFA in %,Avena fatua [8]; 80 g/ha,100%
same,Pre-emergence action against VIOTR,Viola tricolor [9]; 80 g/ha,90%
same,Pre-emergence action against VIOTR,Viola tricolor [9]; 320 g/ha,100%
same,Pre-emergence action against ABUTH,Abutilon theophrasti [10]; 20 g/ha,100%
same,Pre-emergence action against ABUTH,Abutilon theophrasti [10]; 80 g/ha,100%
same,Pre-emergence action against ABUTH,Abutilon theophrasti [10]; [25],100%
same,Pre-emergence action against ECHCG,Echinochloa crus-galli [11]; 320 g/ha,80%
same,Pre-emergence action against VERPE,Veronica persica [12],90%
same,Post-emergence action against ABUTH,Abutilon theophrasti [13]; 5 g/ha,100%
same,Post-emergence action against ABUTH,Abutilon theophrasti [13]; 20 g/ha,100%
same,Post-emergence action against ABUTH,Abutilon theophrasti [13]; 80 g/ha,100%
same,Pre-emergence action against AVEFA,Avena fatua [14]; 320 g/ha,100%
same,Pre-emergence action against CYPES,Cyperus esculentus; 80 g/ha,100%
same,Pre-emergence action against CYPES,Cyperus esculentus; 320 g/ha,100%
same,Post-emergence action against SETVI in %,Setaria viridis [15]; 20 g/ha,80%
same,Post-emergence action against SETVI in %,Setaria viridis [15]; 80 g/ha,100%
same,Pre-emergence action against AMARE,Amaranthus retroflexus [16]; 20 g/ha,90%
same,Pre-emergence action against AMARE,Amaranthus retroflexus [16]; 80 g/ha,100%
same,Pre-emergence action against AMARE,Amaranthus retroflexus [16]; 320 g/ha,100%
same,Post-emergence action against ECHCG in %,Echinochloa crus-galli [17]; 5 g/ha,90%
same,Post-emergence action against ECHCG in %,Echinochloa crus-galli [17]; 20 g/ha,100%
same,Post-emergence action against ECHCG in %,Echinochloa crus-galli [17]; 80 g/ha,100%
same,Post-emergence action against VERPE in %,Veronica persica [18]; 80 g/ha,90%
same,Post-emergence action against ALOMY,Alopecurus myosuroides [19],80%
same,Post-emergence action against MATIN in %,Matricaria inodora [20]; 5 g/ha,80%
same,Post-emergence action against MATIN in %,Matricaria inodora [20]; 20 g/ha,90%
same,Post-emergence action against MATIN in %,Matricaria inodora [20]; 80 g/ha,100%
same,Pre-emergence action against STEME,Stellaria media [21]; 20 g/ha,80%
same,Pre-emergence action against STEME,Stellaria media [21]; 80 g/ha,80%
same,Pre-emergence action against STEME,Stellaria media [21]; 320 g/ha,100%
same,Pre-emergence action against ALOMY,Alopecurus myosuroides [22]; 320 g/ha,90%
same,Pre-emergence action against LOLRI,Lolium rigidum,80%
same,Post-emergence action against VIOTR in %,Viola tricolor [23]; 5 g/ha,80%
same,Post-emergence action against VIOTR in %,Viola tricolor [23]; 20 g/ha,90%
same,Post-emergence action against VIOTR in %,Viola tricolor [23]; 80 g/ha,100%
